Patent publication US9833433B1, “Compositions, methods of use, and methods of treatment” (priority 2013, dated 2017)

Experiments:
COX-1 = assay: Hippocampal COX-1 expression in mice (immunoblot); format: in vivo; details: Δ^9-THC 10 mg/kg, detected 4 hrs after injection
PGE2 = PGE2 assay in hippocampal tissue (enzyme immunoassay); format: in vivo, mice; details: 10 mg/kg; detected 4 hrs after injection
Source text: PGE2 in hippocampal tissue was detected using PGE2 enzyme immunoassay kit (Cayman Chemical, Ann Arbor, Mich.) according to the procedure described by the manufacturer (Zhang and Chen, 2008).

COX-2 mRNA = COX-2 mRNA by qPCR in NG108-15 cells; format: cell-based; details: culture transfected with the control vector; 6 hrs after Δ^9-THC
[1] = test system: NF-κB p65 binding to ptgs2 promoter; format: cell-based; details: mixed culture; Δ^9-THC 30 μM
[2] = test system: Akt, ERK, p38MAPK and NF-κB; assay: Phosphorylation of Akt, ERK, p38MAPK and NF-κB in hippocampal tissue; format: in vivo, mice; details: Δ^9-THC 10 mg/kg
[3] = test system: hippocampal LTP at CA3-CA1 and perforant path synapses; assay: Hippocampal LTP (fEPSP recordings in slices, theta-burst stimulation); format: in vivo, mice; details: 10 mg/kg once daily for 7 days; LTP 24 hr after last injection; CA3-CA1 and perforant path
Description: Hippocampal LTP both at CA3-CA1 and perforant path synapses were recorded in acutely hippocampal slices and induced by a theta-burst stimulation (TBS) as described previously (Hoffman et al., 2007).
Hippocampal slices were prepared from mice as described previously (Chen et al., 2002; Chen et al., 2012; Fan et al., 2010). Briefly, after decapitation, brains were rapidly removed and placed in cold oxygenated (95% O2, 5% CO2) artificial cerebrospinal fluid (ACSF) containing: 125.0 NaCl, 2.5 KCl, 1.0 MgCl2, 25.0 NaHCO3, 1.25 NaH2PO4, 2.0 CaCl2, 25.0 glucose, 3 pyruvic acid, and 1 ascorbic acid. Slices were cut at a thickness of 350-400 μm and transferred to a holding chamber in an incubator containing ACSF at 36° C. for 0.5 to 1 hour, and maintained in an incubator containing oxygenated ACSF at room temperature (˜22-24° C.) for >1.5 h before recordings. Slices were then transferred to a recording chamber where they were continuously perfused with 95% O2, 5% CO2-saturated standard ACSF at ˜32-34° C. Individual pyramidal and dentate granule neurons were viewed with an upright microscope (Olympus BX51WI) fitted with a 60× water-immersion objective and differential interference contrast (DIC) optics.
Field EPSP (fEPSP) recordings both at CA3-CA1 and perforant path synapses in response to stimuli at a frequency of 0.05 Hz were made using an Axoclamp-2B patch-clamp amplifier (Molecular Devices, CA) in bridge mode. Recording pipettes were pulled from borosilicate glass with a micropipette puller (Sutter Instrument), filled with artificial ACSF (2-4 MΩ). […]

hippocampal LTD = assay: Hippocampal LTD induced by low-frequency stimulation at CA3-CA1 synapses; format: in vivo; details: single injection 10 mg/kg i.p.; LTD recorded 24 hrs later; WT mice P12 to P17
Source text: Field EPSP (fEPSP) recordings both at CA3-CA1 and perforant path synapses in response to stimuli at a frequency of 0.05 Hz were made using an Axoclamp-2B patch-clamp amplifier (Molecular Devices, CA) in bridge mode. Recording pipettes were pulled from borosilicate glass with a micropipette puller (Sutter Instrument), filled with artificial ACSF (2-4 MΩ). Hippocampal LTP at CA3-CA1 and perforant path synapses was induced by a theta-burst stimulation (TBS), consisting of a series of 10 bursts of 5 stimuli at 100 Hz (200 ms interburst interval, which was repeated three time (Fan et al., 2010; Hoffman et al., 2007; Chen et al., 2012). The input-output function was tested before recording of LTP, and the baseline stimulation strength was set to provide fEPSP with an amplitude of ˜30% from the subthreshold maximum derived from the input-output function. Hippocampal LTD was induced by low-frequency stimulation (900 stimuli at 1 Hz for 15 min) at CA3-CA1 synapses.

[4] = test system: synaptic release of glutamate; assay: Miniature spontaneous EPSCs (mEPSCs) in cultured hippocampal neurons; format: cell-based; details: Δ^9-THC 3 μM; recorded 24 hrs after treatment
Aβ plaques = Aβ plaques in 5XFAD APP transgenic mice (immunohistochemistry); format: in vivo; details: Δ^9-THC 3 mg/kg once daily for 4 weeks
Description: Immunohistochemical analyses were performed to determine total Aβ in coronal brain sections as described previously (Chen et al., 2012). 5XFAD APP transgenic mice that vehicle, or Δ^9-THC (3 mg/kg) or Δ^9-THC+Celebrex (1 mg/kg) for 4 weeks at 4 to 6 months of age were anesthetized with ketamine/Xylazine (200/10 mg/kg) and subsequently transcardially perfused with PBS followed by 4% paraformaldehyde in phosphate buffer. The brains were quickly removed from the skulls and fixed in 4% paraformaldehyde overnight, and then transferred into the PBS containing 30% sucrose until sinking to the bottom of the small glass jars. Cryostat sectioning was made on a freezing Vibratome at 40 μm and series sections (10 to 12 slices) were collected in 0.1M phosphate buffer. […] 4′-6-Diamidino-2-phenylindole (DAPI), a fluorescent stain that binds strongly to DNA, was used it to detect cell nuclei in the sections. The sections were then mounted on slides for immunofluorescence detection using a Zeiss fluorescence microscope.

degenerated neurons = assay: Degenerated neurons by Fluoro-Jade C staining in 5XFAD APP transgenic mice; format: in vivo; details: Δ^9-THC 3 mg/kg once daily for 4 weeks
Description: Degenerated neurons were detected using Fluoro-Jade C (FJC), which is an anionic dye that specifically stains the soma and neurites of degenerating neurons and thus is unique as a neurodegenerative marker. Cryostat cut sections were incubated in the solution with FJC (0.0001% solution, EMD Millipore) and DAPI (0.5 μg/ml) for 10 min, followed by 3×1-min wash with distilled water. Slices were dried naturally at room temperature without light. The images were taken using a Zeiss deconvolution microscope with SlideBook 5.0 software as described previously (Chen et al., 2012).

CREB = assay: Phosphorylation of hippocampal CREB; details: WT mice; Δ^9-THC for 7 days
Akt, ERK, and p38MAPK = assay: Phosphorylation of Akt, ERK and p38MAPK in NG108-15 cells; details: Δ^9-THC 30 μM
EAAT1, EAAT2, and EAAT3 = assay: Hippocampal expression of glutamate transporters (immunoblot); details: Δ^9-THC 10 mg/kg once a day for 7 days

For `CCCCCc1cc(O)c2c(c1)OC(C)(C)[C@@H]1CCC(C)=C[C@@H]21` [Δ^9-THC, Δ^9-tetrahydrocannabinol], which “hippocampal COX-1 expression” value (COX-1) is on record?
Its value is “unaffected”.

What about the “hippocampal PGE2 production after cannabinoid injection” value (PGE2) of the same molecule?
Its value is “elevated production of prostaglandin E2 (PGE2)”.

What about the “COX-2 mRNA expression in NG108-15 cells” value (COX-2 mRNA) of the same molecule?
The value was “increased expression of COX-2 mRNA”.

And the “binding of NF-κB p65 to ptgs2 promoter positions −419 to −428 bp” value [1]?
Its value is “enhanced”.

What about the “phosphorylation of Akt, ERK, p38MAPK and NF-κB in the hippocampus” value [2] of the same molecule?
Its value is “confirmed”.

What about the “hippocampal LTP after repeated Δ^9-THC exposure” value [3] of the same molecule?
Its value is “decreased hippocampal LTP”.

What about the “hippocampal LTD after single exposure” value (hippocampal LTD) of the same molecule?
Its value is “impaired”.

And the “synaptic release of glutamate (mEPSCs)” value [4]?
The value was “enhanced synaptic release of glutamate”.

And the “numbers of Aβ plaques” value (Aβ plaques; absence of Celebrex)?
The value was “significantly reduced”.

And the “numbers of Aβ plaques” value (Aβ plaques; presence of Celebrex 1 mg/kg)?
The value was “significantly reduced”.

And the “numbers of degenerated neurons” value (degenerated neurons; absence of Celebrex)?
The value was “significantly reduced”.

What about the “numbers of degenerated neurons” value (degenerated neurons; presence of Celebrex 1 mg/kg) of the same molecule?
The value was “significantly reduced”.

And the “phosphorylation of hippocampal CREB” value (CREB)?
The value was “reduced expression of glutamate receptor subunits and phosphorylation of CREB”.

What about the “phosphorylation of Akt, ERK, and p38MAPK” value (Akt, ERK, and p38MAPK) of the same molecule?
The value was “induced phosphorylation of these signaling molecules”.

What about the “expression of glutamate transporters” value (EAAT1, EAAT2, and EAAT3) of the same molecule?
The value was “down-regulated”.
